Drawing on paper PMC10675132, “Novel Coumarin Derivatives as Potential Urease Inhibitors for Kidney Stone Prevention and Antiulcer Therapy: From Synthesis to In Vivo Evaluation” (Pharmaceuticals, 2023), this text covers IC50 for four compounds.

Like-named read-outs stand apart in the source and are kept apart here.

The target in this experiment is jack bean urease (Canavalia ensiformis, UniProt P07374). Nature of the experiment: indophenol urease inhibition assay ([…] nm). Format: biochemical.
Sequence of jack bean urease (P07374 whole entry, looked up): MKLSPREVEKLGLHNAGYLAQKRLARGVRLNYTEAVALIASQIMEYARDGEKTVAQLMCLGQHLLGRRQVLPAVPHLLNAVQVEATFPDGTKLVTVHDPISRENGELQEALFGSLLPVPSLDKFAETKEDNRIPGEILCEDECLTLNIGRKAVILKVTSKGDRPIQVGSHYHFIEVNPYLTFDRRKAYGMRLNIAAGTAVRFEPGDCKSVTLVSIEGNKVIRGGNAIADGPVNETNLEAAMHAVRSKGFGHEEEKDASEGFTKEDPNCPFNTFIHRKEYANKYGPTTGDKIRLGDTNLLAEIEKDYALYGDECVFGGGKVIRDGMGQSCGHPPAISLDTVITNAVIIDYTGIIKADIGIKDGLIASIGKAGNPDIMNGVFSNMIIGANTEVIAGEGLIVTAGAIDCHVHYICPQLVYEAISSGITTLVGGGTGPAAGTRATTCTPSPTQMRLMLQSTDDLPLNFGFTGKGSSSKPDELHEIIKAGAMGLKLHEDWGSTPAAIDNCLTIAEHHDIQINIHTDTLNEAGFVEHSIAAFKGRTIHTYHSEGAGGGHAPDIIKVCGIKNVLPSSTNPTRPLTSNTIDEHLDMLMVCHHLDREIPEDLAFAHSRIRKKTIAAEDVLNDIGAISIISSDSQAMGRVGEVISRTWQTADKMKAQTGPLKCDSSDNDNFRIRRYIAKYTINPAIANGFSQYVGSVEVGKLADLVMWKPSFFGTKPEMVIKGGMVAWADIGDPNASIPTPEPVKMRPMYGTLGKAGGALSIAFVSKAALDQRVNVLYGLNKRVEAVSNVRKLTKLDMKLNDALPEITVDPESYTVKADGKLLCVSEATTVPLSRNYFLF

A word on the IC50: it is the concentration that gives 50% inhibition. Turning to `NC(N)=S` [Thiourea, reference compound], the half-maximal inhibitory concentration (IC50) (read-out: IC50 ± SEM) worked out at 140 nM.
As to `Cc1ccc(O)c(/C=N/c2cc(=O)oc3ccccc23)c1` [7a, (E)-4-(2-hydroxy-5-methylbenzylideneamino)-2H-chromen-2-one], half-maximal inhibition (IC50) was put at 112 nM.
As for `O=c1cc(/N=C/c2ccc([N+](=O)[O-])cc2)c2ccccc2o1` [5a, (E)-4-(4-nitrobenzylideneamino)-2H-chromen-2-one], the concentration for half-maximal inhibition (IC50) was determined as 322 nM.
Same read-out and setting: the value for `O=c1cc(/N=C/c2cccc([N+](=O)[O-])c2)c2ccccc2o1` [3a, (E)-4-(3-nitrobenzylideneamino)-2H-chromen-2-one] was 412 nM.
